Results: patent US4228304A, “Novel cyclohexanecarboxylic acid and its derivatives” (Hisamitsu Pharmaceutical Co. Inc., priority 1977, dated 1980)
Counter-ions that a name gives are not always drawn. Values belong to the compound of their own block, whether it stands above or below them.

Tests used:
[1] = system: Picryl Chloride induced contact dermatitis; assay: Picryl Chloride induced contact dermatitis; format: in vivo, mouse (ddY strain); conditions: Mus musculus, po; for inhibition in vivo at 100 mg/kg: orally, ear swelling 24 hours after second challenge
Experimental: (3) Picryl Chloride induced contact dermatitis
At first 0.1 ml of 7% picryl chloride-ethanol solution was applied to skin of the depilated abdomens (area 2.5×15 mm) of ddY-strain male mice (body weight 20-22 g). After one week each 0.02 ml of 1% picryl chloride-olive oil solution was applied topically to the ears of the mouse. […] After three days 0.1 ml of 7% picryl chloride-ethanol solution was applied again to the depilated abdomens of the mice. After one week, each 0.02 ml of 1% picryl chloride-olive oil solution per ear were applied topically to the bilateral ears, and at same time, the test compounds were administered orally. Immediately before and 24 hours after the second challenge, the thickness of the ears was measured and the swelling was calculated. The percent inhibitions were calculated by the ratio of the each swelling to the control.

[2] = system: rat adjuvant polyarthritis; assay: Effect on rat adjuvant polyarthritis; format: in vivo, rat (Sprague Dawley strain); conditions: oral daily: Compound No. 1 200 mg/kg, Ibuprofen 50 mg/kg, Prednisolone 0.5 mg/kg
Experimental: (5) Effect on rat adjuvant polyarthritis
A group of eight to ten male Sprague Dawley strain rats (body weight 240-280 g) were used. 0.1 ml of Complete Freuind's adjuvant (CFA, Mycobacterium butyricum, 100 mg/10 cc) was injected intradermally to the right hind sole.

[3] = system: passive cutaneous anaphylaxis in rat; assay: Homologeous passive cutaneous anaphylaxis in rat; format: in vivo, rat (Wistar strain); conditions: orally, exuded pigment vs control
Experimental: (2) Homologeous passive cutaneous anaphylaxis in rat Each test compound suspended in 0.5% tragacanth gum-distilled water was administered orally to a group of five male Wistar strain rats (body weight 150-200 g). After one hour 0.1 ml of 5% anti-Dinitrophinol conpled Ascaris rat IgE serum-physiological sodium chloride solution was injected intradermally to dorsum of the rat. […] The animals were sacrificed by decapitation 30 minutes after the injection. Thereafter the skin of the animals were removed and the amount of the pigment exuded into the inflamed skin was determined. The percent inhibitions were calculated by the ratio of the amounts of exuded pigments to the control.

[4] = system: lung fragment of guinea pig; assay: Mediator (histamine) release on lung fragment of guinea pig; format: cell-based, guinea pig (Hartley strain); conditions: 10^-4 g/ml
Experimental: (4) Mediator release on lung fragment of guinea pig.
A group of Hartley strain male guinea pigs (body weight 250-300 g) were administered intraperitoneally anti-BPO-BGG IgE serum. The animals were sacrificed by decapitation, and those sensitized lungs were isolated for use. […] Following 10 minute incubation, the amount of the released histamine were determined by bioassay.

Acute toxicity (rat) = conditions: in vivo, po
Experimental: Each test compound suspended in 0.5% tragacanth gum-saline was administered orally, subcutaneously or intraperitoneally to animals ddY strain mouse and Wistar strain rats. The 50% lethal dose and the 95% confidence limit were calculated by Litchfield-Wilcoxon's method from the death of animals in 3 weeks following administration.

[5] = Determination of surface tension; format: physicochemical; conditions: 0.25% solution of the salt, Ring method, 25° C.
Experimental: (§1) (6) Emulsification test and determination of surface tention
As the structure of the compounds of the present invention is comparatively, similar to Amisoft, HS-11, a sort of Amisoft, which is mixture of 70% of N-stearoyl-L-glutamic acid monosodium salt and 30% of N-palmitoyl-L-glutamic acid monosodium salt was selected for the tests. The surface activity and the surface tension of the said HS-11 and the compounds of the present invention were measured and determined respectively, and those comparative results were shown in Table VII.
(2) Determination of surface tension
The 0.25% solution of the salt of each compound was determined by Ring method at 25° C.

Emulsification test = format: physicochemical; conditions: 10 ml of 0.25% solution of the salt + 10 ml toluene, 40° C., 15 minutes standing
Experimental: as §1
They were emulsified in the test tube by turning it upside down repeatedly for 30 times at 40° C. and were allowed to stand for 15 minutes. After the standing the separated volume of aqueous layer was measured.

Structure (SMILES): CC(C)CCC[C@H]1CC[C@](C)(C(=O)O)CC1 [compound 20, trans-4-isohexyl-1-methylcyclohexanecarboxylic acid]
inhibition in vivo at 100 mg/kg [1]: 44%

Structure (SMILES): CC(C)Cc1ccc(C(C)C(=O)O)cc1 (stereo not drawn) [Ibuprofen]
Swelling percent of left hind paw (non-treatment of CFA) ([2]; day 0): -1.7±1.3%
Swelling percent of right hind paw (treatment of CFA) ([2]; day 0): 118.6± 5.7%
Swelling percent of left hind paw (non-treatment of CFA) ([2]; day 1): -2.4±1.0%
Swelling percent of right hind paw (treatment of CFA) ([2]; day 1): 98.1± 6.1%
Swelling percent of left hind paw (non-treatment of CFA) ([2]; day 4): -2.3±1.5%
Swelling percent of right hind paw (treatment of CFA) ([2]; day 4): 204.7±11.6%
Swelling percent of left hind paw (non-treatment of CFA) ([2]; day 7): 1.5±1.8%
Swelling percent of right hind paw (treatment of CFA) ([2]; day 7): 181.7±14.8%
Swelling percent of left hind paw (non-treatment of CFA) ([2]; day 10): 7.4±1.8%
Swelling percent of left hind paw (non-treatment of CFA) ([2]; day 14): 12.5±1.5%
Swelling percent of left hind paw (non-treatment of CFA) ([2]; day 17): 8.5±1.5%
Swelling percent of left hind paw (non-treatment of CFA) ([2]; day 21): 8.5±2.0%
Swelling percent of right hind paw (treatment of CFA) ([2]; day 21): 138.5±12.6%

Structure (SMILES): CCCCC(NC(=O)[C@]1(C)CC[C@H](CCCC(C)C)CC1)C(=O)O (stereo partly drawn) [compound 11]
inhibition in vivo at 100 mg/kg [1]: 37%

Structure (SMILES): CC(C)CCC[C@H]1CC[C@@](C)(C(=O)N[C@@H](CS)C(=O)O)CC1 [compound 18]
inhibition in vivo at 100 mg/kg [1]: 27%

Structure (SMILES): CC(C)CCC[C@H]1CC[C@](C)(C(=O)NCC(=O)O)CC1 [compound 21, N-(trans-4-isohexyl-1-methylcyclohexanecarbonyl)-glycine]
inhibition in vivo at 100 mg/kg [1]: 53%

Structure (SMILES): CC(C)CCC[C@H]1CC[C@@](C)(C(=O)N[C@@H](C)C(=O)O)CC1 [compound 5]
inhibition in vivo at 100 mg/kg [1]: 32%

Structure (SMILES): CC(C)CCC[C@H]1CC[C@@](C)(C(=O)NCCC(=O)O)CC1 [compound 6, N-(cis-4-isohexyl-1-methylcyclohexanecarbonyl)-β-alanine]
inhibition in vivo at 100 mg/kg [1]: 10%

Structure (SMILES): CC(C)CCC[C@H]1CC[C@@](C)(C(=O)N[C@H](C(=O)O)C(C)C)CC1 [compound 10]
inhibition in vivo at 100 mg/kg [1]: 9%

Structure (SMILES): CC(C)CCC[C@H]1CC[C@@](C)(C(=O)NCC(=O)O)CC1 [Compound No. 2, N-(cis-4-isohexyl-1-methylcyclohexanecarbonyl)-glycine]
Inhibition ([3]; 100 mg/kg): 46%
inhibition (released histamine) [4]: 73.0%
LD50 at 504 h (Acute toxicity (rat); female rat): ~10300 mg/kg
LD50 at 504 h (Acute toxicity (rat); male rat): ~11000 mg/kg
inhibition in vivo at 100 mg/kg [1]: 41%

Structure (SMILES): CC(C)CCC[C@H]1CC[C@@](C)(C(=O)N[C@@H](CCC(N)=O)C(=O)O)CC1 [compound 14]
inhibition in vivo at 100 mg/kg [1]: 7%

Structure (SMILES): CCC(NC(=O)[C@]1(C)CC[C@H](CCCC(C)C)CC1)C(=O)O (stereo partly drawn) [Compound No. 12]
inhibition in vivo at 100 mg/kg [1]: 27%

Surface tension γ [5]: 38.8 dyn/cm
Separated volume of aqueous layer (Emulsification test): 9.5 mL
Structure (SMILES): CC(C)CCC[C@H]1CC[C@H](C(=O)NCCCCCC(=O)O)CC1 [Compound No. 42 (sodium salt)]

Structure (SMILES): CC(C)CCC[C@H]1CC[C@@](C)(C(=O)NCCCCCC(=O)O)CC1 [compound 3, N-(cis-4-isohexyl-1-methylcyclohexanecarbonyl)-ε-aminocaproic acid]
inhibition in vivo at 100 mg/kg [1]: 45%

Structure (SMILES): CC(C)CCC[C@H]1CC[C@@](C)(C(=O)NCC(=O)O)CC1 [Compound No. 2 (potassium salt)]
Surface tension γ [5]: 39.5 dyn/cm
Separated volume of aqueous layer (Emulsification test): 9.5 mL

Structure (SMILES): CCCC(NC(=O)[C@]1(C)CC[C@H](CCCC(C)C)CC1)C(=O)O (stereo partly drawn) [compound 9]
inhibition in vivo at 100 mg/kg [1]: 47%

Surface tension γ [5]: 42.3 dyn/cm
Separated volume of aqueous layer (Emulsification test): 9.5 mL
Structure (SMILES): CSCC[C@H](NC(=O)[C@]1(C)CC[C@H](CCCC(C)C)CC1)C(=O)O [Compound No. 17 (triethanolamine salt)]

Structure (SMILES): CC1(C)[C@@H](O[C@H]2O[C@H](C(=O)O)[C@@H](O)[C@H](O)[C@H]2O[C@@H]2O[C@H](C(=O)O)[C@@H](O)[C@H](O)[C@H]2O)CC[C@]2(C)[C@H]3C(=O)C=C4[C@@H]5C[C@@](C)(C(=O)O)CC[C@]5(C)CC[C@@]4(C)[C@]3(C)CC[C@@H]12 [Glycyrrhizin, reference compound]
Inhibition ([3]; 100 mg/kg): 22%
inhibition (released histamine) [4]: 8.0%

Structure (SMILES): C[C@]12C=CC(=O)C=C1CC[C@@H]1[C@@H]2[C@@H](O)C[C@@]2(C)[C@H]1CC[C@]2(O)C(=O)CO [Prednisolone]
Swelling percent of left hind paw (non-treatment of CFA) ([2]; day 0): -1.1±1.0%
Swelling percent of right hind paw (treatment of CFA) ([2]; day 0): 118.4± 6.0%
Swelling percent of left hind paw (non-treatment of CFA) ([2]; day 1): -1.0±1.0%
Swelling percent of right hind paw (treatment of CFA) ([2]; day 1): 97.3± 6.5%
Swelling percent of left hind paw (non-treatment of CFA) ([2]; day 4): -1.7±1.1%
Swelling percent of right hind paw (treatment of CFA) ([2]; day 4): 232.7±17.8%
Swelling percent of left hind paw (non-treatment of CFA) ([2]; day 7): 5.7±1.9%
Swelling percent of right hind paw (treatment of CFA) ([2]; day 7): 200.3±22.5%
Swelling percent of left hind paw (non-treatment of CFA) ([2]; day 10): 4.5±2.9%
Swelling percent of right hind paw (treatment of CFA) ([2]; day 10): 167.2±19.0%
Swelling percent of left hind paw (non-treatment of CFA) ([2]; day 14): 12.5±2.4%
Swelling percent of right hind paw (treatment of CFA) ([2]; day 14): 175.0±18.6%
Swelling percent of left hind paw (non-treatment of CFA) ([2]; day 17): 9.8±1.4%
Swelling percent of right hind paw (treatment of CFA) ([2]; day 17): 174.2±18.6%
Swelling percent of left hind paw (non-treatment of CFA) ([2]; day 21): 7.1±1.5%
Swelling percent of right hind paw (treatment of CFA) ([2]; day 21): 173.0±23.7%
Inhibition ([3]; 5 mg/kg): 42%
inhibition (released histamine) [4]: 4.0%
inhibition in vivo at 5 mg/kg ([1]; 24 h, read-out: Inhibition): 32%

Structure (SMILES): CC(C)CCC[C@H]1CC[C@@](C)(C(=O)NCCCC(=O)O)CC1 [compound 13]
inhibition in vivo at 100 mg/kg [1]: 40%

Structure (SMILES): CSCC[C@H](NC(=O)[C@]1(C)CC[C@H](CCCC(C)C)CC1)C(=O)O [Compound No. 17]
inhibition in vivo at 100 mg/kg [1]: 50%

Surface tension γ [5]: 44.5 dyn/cm
Separated volume of aqueous layer (Emulsification test): 7.3 mL
Structure (SMILES): CCC(NC(=O)[C@]1(C)CC[C@H](CCCC(C)C)CC1)C(=O)O (stereo partly drawn) [Compound No. 12 (potassium salt)]

Surface tension γ [5]: 42.3 dyn/cm
Separated volume of aqueous layer (Emulsification test): 9.3 mL
Structure (SMILES): CC(C)CCC[C@H]1CC[C@@](C)(C(=O)N[C@@H](CCC(=O)O)C(=O)O)CC1 [Compound No. 15 (monosodium salt)]

Structure (SMILES): CC[C@H](C)[C@H](NC(=O)[C@]1(C)CC[C@H](CCCC(C)C)CC1)C(=O)O [compound 8]
inhibition in vivo at 100 mg/kg [1]: 41%
